Assay results as given in article PMC7394242 (Journal of molecular biology, 2020).

Columns and labels:
sRI-sT complex = sRI-sT complex (Enterobacteria phage T4, UniProt P06808+P13304); assay: biochemical; type: binding
crystal structure = biological target: the molecule itself; assay: crystal structure

Sequence of sRI-sT complex (P06808 56-218, one chain of several): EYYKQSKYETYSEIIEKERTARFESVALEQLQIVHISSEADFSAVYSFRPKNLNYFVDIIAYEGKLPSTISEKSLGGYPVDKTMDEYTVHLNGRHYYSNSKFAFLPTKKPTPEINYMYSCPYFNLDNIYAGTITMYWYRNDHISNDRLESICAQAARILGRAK

In the case of `Nc1nc2c(ncn2[C@@H]2O[C@H](CO)[C@@H](O)[C@H]2O)c(=O)[nH]1` [guanosine], the Kd (sRI-sT complex) is reported as 43 µM.

B1: periplasmic/soluble domain of the antiholin RI (sRI), residues 25-97, with C-terminal histidine tag (domain or fragment, T4 phage, UniProt P13304 25-97, looked up)
chain: NVDPHFDKFMESGIRHVYMLFENKSVESSEQFYSFMRTTYKNDPCSSDFECIERGAEMAQSYARIMNIKLETE
modifications: disulfide bond between Cys69 and Cys75
In the case of B1, the “stoichiometry N” value (crystal structure) is reported as 4.
